The compounds below were run on A549-NF-κB-SEAP reporter cells (assay: Inhibition of NF-κB-induced inflammation: […] NINA Instant Assay, TNF-α stimulated SEAP reporter). Settings: % inhibition classes.
Format: cell-based
Text: For the determination of anti-inflammatory activity of the compounds the […]® NINA Instant Assay from Cell Culture Service GmBH was used. This assay is based on […] recombinant A549-NF-κB-SEAP reporter cells preceded in 96-well flat bottom plates. As the transfected reportergen for SEAP (secreted embryonic alkaline phosphatase) is under transcriptional control of a NF-κB-responsive element, the expression of this reporter is activated upon stimulation with TNF-α. SEAP secretion into the culture supernatant can be detected by the chemiluminescent substrate CSPD®. Test compounds that inhibit the NF-κB activation show reduced SEAP activity and reduced luminescent readout.
Following 18 h of reactivation at 37° C., 5% CO2 and 90% relative humidity, the cells were incubated with 0.01 up to 100 μM of test compound for 4.5 h before stimulation with 2 ng/ml TNF-α. After stimulation with TNF-α for 22 h endogenous phosphatases were inactivated and CSPD® substrate was supplied for 40 min. SEAP activity then was quantified by measuring luminescence as relative light units (RLU) using a Tecan Ultra reader. Each data point was recorded in quadruplicates and EC50 values were calculated via fitting function and the Microsoft Excel Solver.
In the case of `O=C(c1csc(C2CCN(c3ccc4c(c3)OCCO4)CC2)n1)N1CCN(c2cccc(C(F)(F)F)c2)CC1` [compound 157], the “Biological activity (inhibition in the NF-κB inflammation assay)” value is reported as “+ (“+” stands for 50-80% inhibition)”. With `N#Cc1ccc(CN2CCN(c3nc(C(=O)N4CCN(c5cccc(C(F)(F)F)c5)CC4)cs3)CC2)cc1` [compound 62] the “Biological activity (inhibition in the NF-κB inflammation assay)” value was “+++ (“+++” stands for 90-100% inhibition)”. With `O=C(Nc1nc2ccccc2[nH]1)c1csc(C2CCN(C(=O)c3ccccc3OC(F)(F)F)CC2)n1` [compound 105] the “Biological activity (inhibition in the NF-κB inflammation assay)” value was “+ (“+” stands for 50-80% inhibition)”. In the case of `O=C(c1csc(C2CCN(c3ccc(OC(F)(F)F)cc3)CC2)n1)N1CCN(c2cccc(C(F)(F)F)c2)CC1` [compound 154], the “Biological activity (inhibition in the NF-κB inflammation assay)” value is reported as “+ (“+” stands for 50-80% inhibition)”. In the case of `O=C(Nc1ccccc1OC(F)(F)F)N1CCC(c2nc(C(=O)N3CCN(c4cccc(C(F)(F)F)c4)CC3)cs2)CC1` [compound 140], the “Biological activity (inhibition in the NF-κB inflammation assay)” value is reported as “+ (“+” stands for 50-80% inhibition)”. For `N=C(NC(=O)c1coc(NC(=O)c2ccccc2OC(F)(F)F)n1)Nc1nc2ccccc2[nH]1` [compound 28], the “Biological activity (inhibition in the NF-κB inflammation assay)” value was “+++ (“+++” stands for 90-100% inhibition)”. With `Cc1cc2nc(NC(=O)c3csc(C4CCNCC4)n3)[nH]c2cc1C` [compound 144] the “Biological activity (inhibition in the NF-κB inflammation assay)” value was “+ (“+” stands for 50-80% inhibition)”. For `N=C(NC(=O)c1csc(C2CCNCC2)n1)Nc1nc2ccccc2[nH]1` [compound 94], the “Biological activity (inhibition in the NF-κB inflammation assay)” value was “+ (“+” stands for 50-80% inhibition)”. With `O=C(c1csc(C2CCN(C(=O)c3ccccc3OC(F)(F)F)CC2)n1)N1CCN(c2cccc(Cl)c2)CC1` [compound 151] the “Biological activity (inhibition in the NF-κB inflammation assay)” value was “+ (“+” stands for 50-80% inhibition)”. `O=C(c1csc(C2CCN(Cc3ccccc3OC(F)(F)F)CC2)n1)N1CCN(c2cccc(C(F)(F)F)c2)CC1` [compound 109] was tested, and the “Biological activity (inhibition in the NF-κB inflammation assay)” value was “+ (“+” stands for 50-80% inhibition)”. With `Cc1noc(C)c1C(=O)N1CCC(c2nc(C(=O)N3CCN(c4cccc(C(F)(F)F)c4)CC3)cs2)CC1` [compound 219] the “Biological activity (inhibition in the NF-κB inflammation assay)” value was “+ (“+” stands for 50-80% inhibition)”. With `CCCCN1CCN(C(=O)c2csc(C3CCN(C(=O)Cc4ccc(F)cc4)CC3)n2)CC1` [compound 231] the “Biological activity (inhibition in the NF-κB inflammation assay)” value was “+ (“+” stands for 50-80% inhibition)”. With `O=C(c1csc(C2CCN(S(=O)(=O)c3ccc(Br)cc3)CC2)n1)N1CCN(c2cccc(C(F)(F)F)c2)CC1` [compound 199] the “Biological activity (inhibition in the NF-κB inflammation assay)” value was “+ (“+” stands for 50-80% inhibition)”. For `Cc1cc2nc(NC(=O)c3csc(C4CCN(C(=O)Cc5ccc(F)cc5)CC4)n3)[nH]c2cc1C` [compound 131], the “Biological activity (inhibition in the NF-κB inflammation assay)” value was “+ (“+” stands for 50-80% inhibition)”. For `N#Cc1ccc(N2CCC(c3nc(C(=O)N4CCN(c5cccc(C(F)(F)F)c5)CC4)cs3)CC2)cc1` [compound 112], the “Biological activity (inhibition in the NF-κB inflammation assay)” value was “+ (“+” stands for 50-80% inhibition)”. For `O=C(c1csc(C2CCN(Cc3cc(C(F)(F)F)cc(C(F)(F)F)c3)CC2)n1)N1CCN(c2cccc(C(F)(F)F)c2)CC1` [compound 175], the “Biological activity (inhibition in the NF-κB inflammation assay)” value was “+ (“+” stands for 50-80% inhibition)”. In the case of `O=C(Cc1ccc(F)cc1)N1CCC(c2nc(C(=O)N3CCN(c4ccccc4)CC3)cs2)CC1` [compound 180], the “Biological activity (inhibition in the NF-κB inflammation assay)” value is reported as “+ (“+” stands for 50-80% inhibition)”. For `CN(C)c1ncnc(NC(=O)c2csc(C3CCN(C(=O)c4ccccc4OC(F)(F)F)CC3)n2)n1` [compound 88], the “Biological activity (inhibition in the NF-κB inflammation assay)” value was “+ (“+” stands for 50-80% inhibition)”. With `O=C(Cc1ccc(F)cc1)N1CCC(c2nc(C(=O)N3CCC(n4nnc5cc(C(F)(F)F)ccc54)CC3)cs2)CC1` [compound 181] the “Biological activity (inhibition in the NF-κB inflammation assay)” value was “+ (“+” stands for 50-80% inhibition)”. With `Nc1cc(=O)[nH]c(NC(=O)c2csc(C3CCN(C(=O)c4ccccc4OC(F)(F)F)CC3)n2)n1` [compound 83] the “Biological activity (inhibition in the NF-κB inflammation assay)” value was “+ (“+” stands for 50-80% inhibition)”. In the case of `CS(=O)(=O)c1ccc(N2CCC(c3nc(C(=O)N4CCN(c5cccc(C(F)(F)F)c5)CC4)cs3)CC2)cc1` [compound 117], the “Biological activity (inhibition in the NF-κB inflammation assay)” value is reported as “+ (“+” stands for 50-80% inhibition)”. In the case of `Cc1cc(=O)[nH]c(NC(=O)c2csc(C3CCN(C(=O)c4ccccc4OC(F)(F)F)CC3)n2)n1` [compound 86], the “Biological activity (inhibition in the NF-κB inflammation assay)” value is reported as “+ (“+” stands for 50-80% inhibition)”. In the case of `O=C(NCCc1cccs1)N1CCC(c2nc(C(=O)N3CCN(c4cccc(C(F)(F)F)c4)CC3)cs2)CC1` [compound 77], the “Biological activity (inhibition in the NF-κB inflammation assay)” value is reported as “+++ (“+++” stands for 90-100% inhibition)”. `O=C(Nc1ccccc1)N1CCC(c2nc(C(=O)N3CCN(c4cccc(C(F)(F)F)c4)CC3)cs2)CC1` [compound 73] was tested, and the “Biological activity (inhibition in the NF-κB inflammation assay)” value was “++ (“++” means 80-90%)”. `COc1nc(OC)nc(N2CCC(c3nc(C(=O)N4CCN(c5cccc(C(F)(F)F)c5)CC4)cs3)CC2)n1` [compound 176] was tested, and the “Biological activity (inhibition in the NF-κB inflammation assay)” value was “+ (“+” stands for 50-80% inhibition)”. In the case of `O=C(c1csc(C2CCN(S(=O)(=O)c3cccs3)CC2)n1)N1CCN(c2cccc(C(F)(F)F)c2)CC1` [compound 194], the “Biological activity (inhibition in the NF-κB inflammation assay)” value is reported as “+ (“+” stands for 50-80% inhibition)”. In the case of `COc1cc(N2CCC(c3nc(C(=O)N4CCN(c5cccc(C(F)(F)F)c5)CC4)cs3)CC2)nc(OC)n1` [compound 164], the “Biological activity (inhibition in the NF-κB inflammation assay)” value is reported as “++ (“++” means 80-90%)”. With `Nc1nc(NC(=O)c2csc(C3CCN(C(=O)c4ccccc4OC(F)(F)F)CC3)n2)n[nH]1` [compound 89] the “Biological activity (inhibition in the NF-κB inflammation assay)” value was “+ (“+” stands for 50-80% inhibition)”. `COc1ccc(OC)c(N2CCC(c3nc(C(=O)N4CCN(c5cccc(C(F)(F)F)c5)CC4)cs3)CC2)c1` [compound 29] was tested, and the “Biological activity (inhibition in the NF-κB inflammation assay)” value was “++ (“++” means 80-90%)”. `O=C(c1csc(C2CCN(C(=O)c3ccccc3OC(F)(F)F)CC2)n1)N1CCN(c2ncnc3nc[nH]c23)CC1` [compound 129] was tested, and the “Biological activity (inhibition in the NF-κB inflammation assay)” value was “+ (“+” stands for 50-80% inhibition)”. For `CC(C)(C)OC(=O)N1CCN(c2nc(C(=O)N3CCN(c4cccc(C(F)(F)F)c4)CC3)cs2)CC1` [compound 63], the “Biological activity (inhibition in the NF-κB inflammation assay)” value was “++ (“++” means 80-90%)”. `O=C(c1csc(N2CCN(c3ccccc3)CC2)n1)N1CCN(c2cccc(C(F)(F)F)c2)CC1` [compound 68] was tested, and the “Biological activity (inhibition in the NF-κB inflammation assay)” value was “+ (“+” stands for 50-80% inhibition)”. In the case of `O=C(O)c1cc(Cl)c(Cl)cc1C(=O)N1CCC(c2nc(C(=O)N3CCN(c4cccc(C(F)(F)F)c4)CC3)cs2)CC1` [compound 187], the “Biological activity (inhibition in the NF-κB inflammation assay)” value is reported as “+ (“+” stands for 50-80% inhibition)”. In the case of `O=C(c1csc(C2CCN(S(=O)(=O)c3cc(C(F)(F)F)cc(C(F)(F)F)c3)CC2)n1)N1CCN(c2cccc(C(F)(F)F)c2)CC1` [compound 201], the “Biological activity (inhibition in the NF-κB inflammation assay)” value is reported as “++ (“++” means 80-90%)”. In the case of `O=C(c1csc(C2CCN(Cc3ccc(Br)cc3)CC2)n1)N1CCN(c2cccc(C(F)(F)F)c2)CC1` [compound 174], the “Biological activity (inhibition in the NF-κB inflammation assay)” value is reported as “+ (“+” stands for 50-80% inhibition)”.

Same assay, conditions: inhibition classes
For `O=C(Cc1ccc(F)cc1)N1CCC(c2nc(C(=O)N3CCCC3c3ccc(F)cc3)cs2)CC1` (stereo not shown) [compound 236], the “Biological activity (inhibition in the NF-κB inflammation assay)” value was “+ (“+” stands for 50-80% inhibition)”. In the case of `CNc1ccc(Cl)cc1C1c2ccccc2CCN1C(=O)c1csc(C2CCN(C(=O)Cc3ccc(F)cc3)CC2)n1` (stereo not shown) [compound 235], the “Biological activity (inhibition in the NF-κB inflammation assay)” value is reported as “+ (“+” stands for 50-80% inhibition)”.
